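48-hour exposure; five concentrations; linearly interpolated endpoints. At the GI50, growth is halved. TGI marks complete inhibition of growth.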
Legend:
Assay in all cases: NCI-60 cell line screen, 48 h
ACHN renal = test system: ACHN renal
COLO 205 colon = test system: COLO 205 colon
HOP-92 NSCLC = test system: HOP-92 NSCLC
MALME-3M melanoma = test system: MALME-3M melanoma
MDA-MB-231 breast = test system: MDA-MB-231 breast
OVCAR-5 ovarian = test system: OVCAR-5 ovarian
SF-268 CNS = test system: SF-268 CNS
TK-10 renal = test system: TK-10 renal
U251 CNS = test system: U251 CNS
A498 renal = test system: A498 renal

Compound: CC1(C)C2CCC13C(=O)C1OC3(C2)C2C(=O)c3cc4ccccc4cc3C(=O)C12 (stereo unspecified)
- GI50 (ACHN renal): 10.4 µM
- TGI (ACHN renal): 26.3 µM
- GI50 (COLO 205 colon): 14.7 µM
- TGI (COLO 205 colon): > 100 µM
- GI50 (HOP-92 NSCLC): 4.19 µM
- TGI (HOP-92 NSCLC): 27.5 µM
- GI50 (MALME-3M melanoma): 7.3 µM
- TGI (MALME-3M melanoma): 43.8 µM
- GI50 (MDA-MB-231 breast): 22.1 µM
- TGI (MDA-MB-231 breast): 49.4 µM
- GI50 (OVCAR-5 ovarian): 18.4 µM
- TGI (OVCAR-5 ovarian): > 100 µM
- GI50 (SF-268 CNS): 5.29 µM
- TGI (SF-268 CNS): 82.4 µM
- GI50 (TK-10 renal): 12.9 µM
- TGI (TK-10 renal): 44.5 µM
- GI50 (U251 CNS): 15.1 µM
- TGI (U251 CNS): 34.4 µM

Compound: CCOC(=O)c1nn2c(nc1=O)sc1ccc3ccccc3c12
- TGI (ACHN renal): > 100 µM
- TGI (COLO 205 colon): > 100 µM
- TGI (HOP-92 NSCLC): > 100 µM
- TGI (MALME-3M melanoma): > 100 µM
- TGI (OVCAR-5 ovarian): > 100 µM
- TGI (SF-268 CNS): > 100 µM
- TGI (TK-10 renal): > 100 µM
- TGI (U251 CNS): > 100 µM

Compound: C[C@H](NC(=O)[C@@H](C)N)[C@H](Oc1ccc2c(cnn2-c2ccc(F)cc2)c1)c1ccc2c(c1)OCCO2
- GI50 (A498 renal): 11.5 µM
- TGI (A498 renal): 24.4 µM
- GI50 (ACHN renal): 1.83 µM
- TGI (ACHN renal): 4.9 µM
- GI50 (COLO 205 colon): 1.83 µM
- TGI (COLO 205 colon): 3.61 µM
- GI50 (MALME-3M melanoma): 1.5 µM
- TGI (MALME-3M melanoma): 3.09 µM
- GI50 (MDA-MB-231 breast): 1.93 µM
- TGI (MDA-MB-231 breast): 4.69 µM
- GI50 (OVCAR-5 ovarian): 2.29 µM
- TGI (OVCAR-5 ovarian): 7.11 µM
- GI50 (SF-268 CNS): 2.48 µM
- TGI (SF-268 CNS): 10.7 µM
- GI50 (TK-10 renal): 2.22 µM
- TGI (TK-10 renal): 5.25 µM
- GI50 (U251 CNS): 2.4 µM
- TGI (U251 CNS): 5.56 µM

Compound: CS(=O)(=O)OC1CCC2(C#N)CCC1C2=O (stereo unspecified)
- TGI (A498 renal): > 100 µM
- TGI (ACHN renal): > 100 µM
- TGI (COLO 205 colon): > 100 µM
- TGI (MALME-3M melanoma): > 100 µM
- TGI (OVCAR-5 ovarian): > 100 µM
- TGI (SF-268 CNS): > 100 µM
- TGI (TK-10 renal): > 100 µM
- TGI (U251 CNS): > 100 µM

Compound: NC(=O)C(=O)N/N=C1\C(=O)N(c2ccc(Cl)cc2Cl)C(=O)C1C(=O)Nc1ccc(Cl)cc1Cl (stereo unspecified)
- TGI (A498 renal): > 100 µM
- TGI (ACHN renal): > 100 µM
- TGI (COLO 205 colon): > 100 µM
- TGI (HOP-92 NSCLC): > 100 µM
- TGI (MALME-3M melanoma): > 100 µM
- TGI (OVCAR-5 ovarian): > 100 µM
- TGI (SF-268 CNS): > 100 µM
- TGI (TK-10 renal): > 100 µM
- TGI (U251 CNS): > 100 µM

Compound: Cc1cccc(/C=C/c2c(C(=O)/C=C/c3ccccc3)c(C)nc3ccccc23)c1
- GI50 (A498 renal): 1.77 µM
- TGI (A498 renal): 3.26 µM
- GI50 (ACHN renal): 1.62 µM
- TGI (ACHN renal): 2.97 µM
- GI50 (COLO 205 colon): 1.81 µM
- TGI (COLO 205 colon): 4.34 µM
- GI50 (HOP-92 NSCLC): 1.48 µM
- TGI (HOP-92 NSCLC): 4 µM
- GI50 (MALME-3M melanoma): 1.79 µM
- TGI (MALME-3M melanoma): 3.2 µM
- GI50 (OVCAR-5 ovarian): 1.98 µM
- TGI (OVCAR-5 ovarian): 3.56 µM
- GI50 (U251 CNS): 1.47 µM
- TGI (U251 CNS): 2.85 µM

Compound: N.N.N.N.N.NC(=O)c1nn[n-]n1.[Cl-].[Co+3]
- GI50 (ACHN renal): > 100 µM
- TGI (ACHN renal): > 100 µM
- GI50 (COLO 205 colon): > 100 µM
- TGI (COLO 205 colon): > 100 µM
- GI50 (HOP-92 NSCLC): > 100 µM
- TGI (HOP-92 NSCLC): > 100 µM
- GI50 (MALME-3M melanoma): > 100 µM
- TGI (MALME-3M melanoma): > 100 µM
- GI50 (OVCAR-5 ovarian): > 100 µM
- TGI (OVCAR-5 ovarian): > 100 µM
- GI50 (SF-268 CNS): > 100 µM
- TGI (SF-268 CNS): > 100 µM
- GI50 (TK-10 renal): > 100 µM
- TGI (TK-10 renal): > 100 µM
- GI50 (U251 CNS): > 100 µM
- TGI (U251 CNS): > 100 µM

Compound: CCCCCCCCCCCc1nnc(N)o1
- TGI (ACHN renal): > 100 µM
- TGI (COLO 205 colon): > 100 µM
- TGI (HOP-92 NSCLC): > 100 µM
- TGI (MALME-3M melanoma): > 100 µM
- TGI (OVCAR-5 ovarian): > 100 µM
- TGI (SF-268 CNS): > 100 µM
- TGI (TK-10 renal): > 100 µM
- TGI (U251 CNS): > 100 µM

Compound: CC(C)=CC1C[C@H](C2CC=C3C2(C)CCC2[C@@]3(C)C(=O)CC3[C@]2(C)C=CC(=O)[C@]3(C)CO)CO1 (stereo partly specified)
- TGI (A498 renal): 23.2 µM
- TGI (ACHN renal): 30.7 µM
- TGI (COLO 205 colon): 27.2 µM
- TGI (HOP-92 NSCLC): 41.3 µM
- TGI (MALME-3M melanoma): 16.8 µM
- TGI (OVCAR-5 ovarian): 37.8 µM
- TGI (SF-268 CNS): 23.1 µM
- TGI (TK-10 renal): 52.4 µM
- TGI (U251 CNS): 21.7 µM

Compound: O=C(O)CCCSC(=O)Nc1ccc(N=Nc2ccccc2)cc1
- TGI (A498 renal): > 100 µM
- TGI (ACHN renal): > 100 µM
- TGI (COLO 205 colon): > 100 µM
- TGI (OVCAR-5 ovarian): > 100 µM
- TGI (SF-268 CNS): > 100 µM
- TGI (TK-10 renal): > 100 µM
- TGI (U251 CNS): > 100 µM

Compound: O=C(O)CCN(CCCCN(CCC(=O)O)CCC(=O)O)CCC(=O)O
- TGI (A498 renal): > 100 µM
- TGI (ACHN renal): > 100 µM
- TGI (COLO 205 colon): > 100 µM
- TGI (HOP-92 NSCLC): > 100 µM
- TGI (MALME-3M melanoma): > 100 µM
- TGI (OVCAR-5 ovarian): > 100 µM
- TGI (SF-268 CNS): > 100 µM
- TGI (TK-10 renal): > 100 µM
- TGI (U251 CNS): > 100 µM

Compound: CC1(C)O[C@H]2[C@H](O)C[C@](O)(CO)C[C@H]2O1
- TGI (ACHN renal): > 100 µM
- TGI (COLO 205 colon): > 100 µM
- TGI (HOP-92 NSCLC): > 100 µM
- TGI (MALME-3M melanoma): > 100 µM
- TGI (OVCAR-5 ovarian): > 100 µM
- TGI (TK-10 renal): > 100 µM
- TGI (U251 CNS): > 100 µM

Compound: CC1=C(c2ccccc2)C(c2ccccc2)=C(c2ccccc2)C2(c3ccccc3)C(=O)C(C)CN12 (stereo unspecified)
- TGI (A498 renal): > 100 µM
- TGI (ACHN renal): > 100 µM
- TGI (MALME-3M melanoma): > 100 µM
- TGI (OVCAR-5 ovarian): > 100 µM
- TGI (SF-268 CNS): > 100 µM
- TGI (U251 CNS): > 100 µM

Compound: O=C1N(C2CCCCC2)CC12CCCCC2
- TGI (A498 renal): > 100 µM
- TGI (ACHN renal): > 100 µM
- TGI (COLO 205 colon): > 100 µM
- TGI (HOP-92 NSCLC): > 100 µM
- TGI (MALME-3M melanoma): > 100 µM
- TGI (SF-268 CNS): > 100 µM
- TGI (TK-10 renal): > 100 µM
- TGI (U251 CNS): > 100 µM

Compound: O=C(O)C1=C(O)C(C(=O)O)C23CCCCCCCCCCC12C(C(=O)O)C(O)=C3C(=O)O (stereo unspecified)
- TGI (ACHN renal): > 100 µM
- TGI (COLO 205 colon): > 100 µM
- TGI (HOP-92 NSCLC): > 100 µM
- TGI (MALME-3M melanoma): > 100 µM
- TGI (OVCAR-5 ovarian): > 100 µM
- TGI (SF-268 CNS): > 100 µM
- TGI (TK-10 renal): > 100 µM
- TGI (U251 CNS): > 100 µM

Compound: C=CCNC(=O)N(CCCCC(NC(C)=O)C(=O)NCc1ccccc1)Cc1ccccc1 (stereo unspecified)
- TGI (A498 renal): > 100 µM
- TGI (ACHN renal): > 100 µM
- TGI (COLO 205 colon): > 100 µM
- TGI (HOP-92 NSCLC): > 100 µM
- TGI (MALME-3M melanoma): > 100 µM
- TGI (OVCAR-5 ovarian): > 100 µM
- TGI (SF-268 CNS): > 100 µM
- TGI (TK-10 renal): > 100 µM
- TGI (U251 CNS): > 100 µM

Compound: COc1ncnc2c(-c3ccccc3)cn(COCc3ccccc3)c12
- GI50 (A498 renal): 1.96 µM
- TGI (A498 renal): 10.1 µM
- GI50 (ACHN renal): 3.82 µM
- TGI (ACHN renal): > 100 µM
- GI50 (COLO 205 colon): 2.69 µM
- TGI (COLO 205 colon): 7.73 µM
- GI50 (MALME-3M melanoma): 2.52 µM
- TGI (MALME-3M melanoma): 7.69 µM
- GI50 (MDA-MB-231 breast): 4.04 µM
- TGI (MDA-MB-231 breast): > 100 µM
- GI50 (OVCAR-5 ovarian): 47.8 µM
- TGI (OVCAR-5 ovarian): > 100 µM
- GI50 (SF-268 CNS): 4.25 µM
- TGI (SF-268 CNS): > 100 µM
- GI50 (TK-10 renal): 4.05 µM
- TGI (TK-10 renal): > 100 µM
- GI50 (U251 CNS): 4.06 µM
- TGI (U251 CNS): > 100 µM

Compound: COc1cc(Br)c(C=Nc2cccc3cc(OC)c(OC)cc23)cc1OC
- TGI (ACHN renal): > 100 µM
- TGI (COLO 205 colon): > 100 µM
- TGI (HOP-92 NSCLC): 98.1 µM
- TGI (MALME-3M melanoma): > 100 µM
- TGI (OVCAR-5 ovarian): > 100 µM
- TGI (SF-268 CNS): > 100 µM
- TGI (TK-10 renal): > 100 µM
- TGI (U251 CNS): > 100 µM

Compound: COc1ccc(C23C(=O)c4ccccc4N2O[C@H]2C(=O)N(c4ccccc4)C(=O)[C@H]23)cc1 (stereo partly specified)
- TGI (A498 renal): > 100 µM
- TGI (ACHN renal): > 100 µM
- TGI (COLO 205 colon): > 100 µM
- TGI (HOP-92 NSCLC): > 100 µM
- TGI (MALME-3M melanoma): > 100 µM
- TGI (OVCAR-5 ovarian): > 100 µM
- TGI (SF-268 CNS): > 100 µM
- TGI (TK-10 renal): > 100 µM
- TGI (U251 CNS): > 100 µM

Compound: CCOC(=O)C12CCCC1(O)N(NC(=O)OC(C)(C)C)C(C)=C2C(=O)OC (stereo unspecified)
- TGI (A498 renal): > 100 µM
- TGI (ACHN renal): > 100 µM
- TGI (COLO 205 colon): > 100 µM
- TGI (HOP-92 NSCLC): > 100 µM
- TGI (MALME-3M melanoma): > 100 µM
- TGI (OVCAR-5 ovarian): > 100 µM
- TGI (SF-268 CNS): > 100 µM
- TGI (TK-10 renal): > 100 µM
- TGI (U251 CNS): > 100 µM
